Reference: PMC12350525, “Investigation of the inhibitory effects of the telomere-targeted compounds on glutathione S-transferase P1” (Naunyn-Schmiedeberg's Archives of Pharmacology, 2025)
Read-outs that look alike come from different tables or passages of the source.

What was measured:
[1] = molecular target: T1, recombinant human GSTP1 (Homo sapiens, UniProt P09211); test: GSTP1 enzyme inhibition assay (GSH-CDNB conjugation, spectrophotometric); assay type: biochemical
T1 construct: made in house; host or cells: E. coli XL-1 Blue
T1 sequence (P09211 whole entry): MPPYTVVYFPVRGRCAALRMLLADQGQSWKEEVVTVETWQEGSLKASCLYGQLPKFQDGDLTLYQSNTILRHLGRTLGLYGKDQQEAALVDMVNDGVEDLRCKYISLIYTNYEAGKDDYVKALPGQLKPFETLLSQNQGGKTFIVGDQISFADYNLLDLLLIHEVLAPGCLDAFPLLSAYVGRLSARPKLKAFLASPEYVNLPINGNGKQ
Description: Glutathione S-transferase P1 (GSTP1) plays a significant role in cancer progression and chemotherapy resistance, with its overexpression diminishing chemotherapeutic efficacy across various tumor types. […] Enzyme inhibition assays with recombinant human GSTP1, kinetic analysis, molecular docking, and molecular dynamic simulations were employed. Enzymatic assays were performed in 0.1 M phosphate buffer (pH 6.5) at 30 °C, containing 1 mM EDTA, 1 mM GSH, and 1 mM CDNB. […] Graphical abstract
The human GST P1-1 gene from a K562 erythroleukemia cDNA library (GSTP1*A allele) was cloned into the pKXHP1 plasmid. This plasmid was transformed into E. coli XL-1 Blue cells via heat shock, grown on agar plates, and a single colony was cultured overnight at 37 °C in 2YT medium. […]
The enzyme activity of GSTP1 was measured using a spectrophotometric assay based on the conjugation of glutathione (GSH) to 1-chloro-2,4-dinitrobenzene (CDNB). […] The progress of the reaction was monitored by measuring the absorbance change at 340 nm, indicating the formation of the GSH-CDNB conjugate. Absorbance readings were recorded over 5 min using a SpectraMax M2 microplate reader. Percentage inhibition at each concentration was calculated, and IC₅₀ values were determined using GraphPad Prism 8.4. […]

[2] = molecular target: T2, GSTP1-1 (Homo sapiens, UniProt P09211); test: Kinetic inhibition studies with GSTP1 (Lineweaver-Burk, varied GSH or CDNB); assay type: biochemical
T2 construct: made in house; host or cells: E. coli XL-1 Blue
T2 sequence (P09211 whole entry): as above
Description: To assess the inhibition type and calculate the inhibition constant (Ki) values for the compounds, kinetic inhibition studies were performed with GSTP1.
By varying the concentration of one substrate while keeping the other at near-saturation, we assessed how each inhibitor interacted with GSTP1 under various substrate conditions. Lineweaver-Burk plots were used to analyze these interactions, allowing for the determination of the inhibition type (e.g., competitive, non-competitive, or mixed) and the Ki values for each compound. These kinetic parameters were calculated using GraphPad Prism, providing a comprehensive understanding of how the inhibitors influence GSTP1 enzymatic activity.
These plots were generated by varying the concentrations of substrates GSH and CDNB with different inhibitor concentrations.

[3] = tested on: GSTP1; conditions: covalent binding to tyrosine residues on GSTP1; ref Louie et al. 2016; cited from earlier work
[4] = CDNB as varied substrate, GSH near-saturating, read-out: Ki CDNB
[5] = GSH as varied substrate, CDNB near-saturating, read-out: Ki GSH

IC50 ([1]; as restated in the discussion) [nM] | Type of inhibition CDNB ([2]; CDNB as varied substrate) | Ki [2, 4] [nM] | Type of inhibition GSH ([2]; GSH as varied substrate) | Ki [2, 5] [nM] | Type of inhibition GSH ([2]; GSH as varied substrate, listed as dimer form) | IC50 ([1]; 0.1 M phosphate buffer pH 6.5, 30 °C, 1 mM EDTA, 1 mM GSH, 1 mM CDNB, 2.5% DMSO) [nM] | Structure (SMILES) | IC50 [3] [nM]
339 | Competitive | 723 | Mixed | 972 | mixed-type | – | Nc1nc(SSc2nc(N)nc3c2ncn3C2CC(O)C(CO)O2)c2ncn(C3CC(O)C(CO)O3)c2n1 (stereo not drawn) [6-thio-2′-dG-Dimer] | –
– | – | – | – | – | – | – | C#CCCCN(c1nc(Cl)nc(Cl)n1)[C@H](CC(C)C)C(=O)OC [LAS17] | 500
– | mixed-type | 11400 | Noncompetitive | 12300 | – | 15100 | Nc1nc2c(ncn2[C@H]2C[C@H](O)[C@@H](CO)O2)c(=S)[nH]1 [Compound 6-thio-dG, 6-thio-2′-deoxyguanosine] | –
